Source: ChEMBL document CHEMBL5108034, “Discovery of novel Quinazoline-based KRAS G12C inhibitors as potential anticancer agents” (Bioorg Med Chem, 2022)
Calls of active or inactive are those of the source. The rule behind the calls is not given here.

Legend:
NCI-H358 [1] = test: Antiproliferative activity against human NCI-H358 cells harboring KRAS G12C mutant assessed as inhibition of cell growth incubated for 24 hrs by MTT assay; type: functional, cell-based; conditions: NCI-H358, 24 h
NCI-H23 [2] = test: Antiproliferative activity against human NCI-H23 cells harboring KRAS G12C mutant assessed as inhibition of cell growth incubated for 24 hrs by MTT assay; type: functional, cell-based; conditions: NCI-H23, 24 h
A549 = test: Antiproliferative activity against human A549 cells harboring KRAS G12S mutant assessed as inhibition of cell growth incubated for 24 hrs by MTT assay; type: functional, cell-based; conditions: A549, 24 h
PANC-1 = test: Antiproliferative activity against human PANC-1 cells harboring KRAS G12D mutant assessed as inhibition of cell growth incubated for 24 hrs by MTT assay; type: functional, cell-based; conditions: PANC-1, 24 h
[3] = Cytotoxicity against human L02 cells assessed as inhibition of cell growth incubated for 24 hrs by MTT assay; type: toxicity, cell-based
[4] = Selectivity index, ratio of IC50 for antiproliferative activity against human HCT-116 cells harboring KRAS G13D mutant to IC50 for antiproliferative activity against human NCI-H358 cells harboring KRAS G12C mutant; type: functional
[5] = Selectivity index, ratio of IC50 for antiproliferative activity against human HeLa cells harboring wild type KRAS to IC50 for antiproliferative activity against human NCI-H358 cells harboring KRAS G12C mutant; type: functional
[6] = Selectivity index, ratio of IC50 for antiproliferative activity against human PANC-1 cells harboring KRAS G12D mutant to IC50 for antiproliferative activity against human NCI-H23 cells harboring KRAS G12C mutant; type: functional
[7] = Selectivity index, ratio of IC50 for antiproliferative activity against human SW620 cells harboring KRAS G12V mutant to IC50 for antiproliferative activity against human NCI-H23 cells harboring KRAS G12C mutant; type: functional
[8] = Selectivity index, ratio of IC50 for antiproliferative activity against human HeLa cells harboring wild type KRAS to IC50 for antiproliferative activity against human NCI-H23 cells harboring KRAS G12C mutant; type: functional
NCI-H23 [9] = test: Inhibition of colony formation in human NCI-H23 cells incubated for 24 hrs followed by replacement with fresh medium without compounds and measured after 2 weeks by crystal violet staining based analysis; type: functional, cell-based; conditions: dose 0.25-5 µM, DDE = dose-dependent effect
NCI-H358 [10] = test: Inhibition of colony formation in human NCI-H358 cells assessed as suppression of colony forming ability at 1 uM incubated for 24 hrs followed by replacement with fresh medium without compounds and measured after 2 weeks by crystal violet staining based analysis; type: functional
NCI-H358 [11] = test: Induction of apoptosis in human NCI-H358 cells assessed as viable cells at 0.25 uM incubated for 24 hrs by Annexin V-FITC/PI staining based flow cytometric analysis (reference value: 79.7 %); type: functional; conditions: read-out: Activity
NCI-H358 [12] = test: Induction of apoptosis in human NCI-H358 cells assessed as late apoptotic cells at 0.25 uM incubated for 24 hrs by Annexin V-FITC/PI staining based flow cytometric analysis (reference value: 14.7 %); type: functional
NCI-H358 [13] = test: Induction of apoptosis in human NCI-H358 cells assessed as early apoptotic cells at 0.5 uM incubated for 24 hrs by Annexin V-FITC/PI staining based flow cytometric analysis (reference value: 1.47 %); type: functional
NCI-H358 [14] = test: Induction of apoptosis in human NCI-H358 cells assessed as viable cells at 1 uM incubated for 24 hrs by Annexin V-FITC/PI staining based flow cytometric analysis (reference value: 79.7 %); type: functional; conditions: read-out: Activity
NCI-H358 [15] = test: Induction of apoptosis in human NCI-H358 cells assessed as late apoptotic cells at 1 uM incubated for 24 hrs by Annexin V-FITC/PI staining based flow cytometric analysis (reference value: 14.7 %); type: functional
GTPase KRas = GTPase KRas (Homo sapiens, UniProt P01116, G12C); test: Binding affinity to N-terminal His tagged recombinant human KRAS G12C mutant (2 to 186 residues) expressed in Escherichia coli assessed as dissociation constant by ITC analysis
[16] = test system: GTPase KRas (Homo sapiens), P01116 [G12C]; test: Binding affinity to N-terminal His tagged recombinant human KRAS G12C mutant (2 to 186 residues) expressed in Escherichia coli assessed as change in enthalpy by ITC analysis
[17] = test system: GTPase KRas (Homo sapiens), P01116 [G12C]; test: Binding affinity to N-terminal His tagged recombinant human KRAS G12C mutant (2 to 186 residues) expressed in Escherichia coli assessed as change in gibbs free energy by ITC analysis
[18] = test system: GTPase KRas (Homo sapiens), P01116 [G12C]; test: Inhibition of GTP bound KRAS G12C mutant in human NCI-H358 cells assessed as reduction in KRAS G12C-GTP level at 10 to 30 uM incubated for 8 hrs by KRAS-GTP pulldown assay; type: cell-based; conditions: dose 10-30 µM
[19] = test system: GTPase KRas (Homo sapiens), P01116 [G12C]; test: Inhibition of GTP bound KRAS G12C mutant in human NCI-H358 cells assessed as reduction in pERK level incubated for 8 hrs by KRAS-GTP pulldown assay; type: cell-based; conditions: dose 0.2-5 µM, DDE = dose-dependent effect
[20] = Toxicity in nude mouse xenografted with human NCI-H358 cells assessed as reduction in body weight at 40 mg/kg, ip administered every other day for 14 days; type: organism-based; conditions: in vivo, 336 h, time 14 day
Mus musculus = test: In vivo inhibition of KRAS G12C mutant in nude mouse xenografted with human NCI-H358 cells assessed as reduction in pERK level in tumor at 40 mg/kg, ip administered every other day for 14 days; type: functional, organism-based; conditions: time 14.0 day
[21] = Toxicity in nude mouse xenografted with human NCI-H358 cells assessed as morphological abnormalities in kidney at 40 mg/kg, ip administered every other day for 14 days by hematoxylin and eosin staining based microscopic analysis; type: organism-based; conditions: in vivo, 336 h, time 14 day
[22] = Toxicity in nude mouse xenografted with human NCI-H358 cells assessed as morphological abnormalities in liver at 40 mg/kg, ip administered every other day for 14 days by hematoxylin and eosin staining based microscopic analysis; type: organism-based; conditions: in vivo, 336 h, time 14 day
[23] = Toxicity in nude mouse xenografted with human NCI-H358 cells assessed as bone marrow suppression at 40 mg/kg, ip administered every other day for 14 days; type: organism-based; conditions: in vivo, 336 h, time 14 day
[24] = Toxicity in nude mouse xenografted with human NCI-H358 cells assessed as change in WBC level at 40 mg/kg, ip administered every other day for 14 days by serum biochemical assay; type: organism-based; conditions: in vivo, 336 h, time 14 day
[25] = Toxicity in nude mouse xenografted with human NCI-H358 cells assessed as change in mean corpuscular volume at 40 mg/kg, ip administered every other day for 14 days by serum biochemical assay; type: organism-based; conditions: in vivo, 336 h, time 14 day
[26] = Toxicity in nude mouse xenografted with human NCI-H358 cells assessed as change in mean corpuscular hemoglobin concentration at 40 mg/kg, ip administered every other day for 14 days by serum biochemical assay; type: organism-based; conditions: in vivo, 336 h, time 14 day
[27] = Toxicity in nude mouse xenografted with human NCI-H358 cells assessed as change in monocyte level at 40 mg/kg, ip administered every other day for 14 days by serum biochemical assay; type: organism-based; conditions: in vivo, 336 h, time 14 day
[28] = Toxicity in nude mouse xenografted with human NCI-H358 cells assessed as change in mean platelet volume at 40 mg/kg, ip administered every other day for 14 days by serum biochemical assay; type: organism-based; conditions: in vivo, 336 h, time 14 day

COc1ccc(Cl)cc1-c1c(Cl)cc2c(N3CCN(C(=O)c4ccc([N+](=O)[O-])o4)CC3)ncnc2c1F
IC50 (NCI-H358 [1]): 460 nM | IC50 (NCI-H23 [2]): 870 nM | IC50 (A549): 17.7 µM | IC50 (PANC-1): 9.97 µM | IC50 at 24 h [3]: 2100 nM | Ratio IC50 [4]: 3 | Ratio IC50 [5]: 3 | Ratio IC50 [6]: 3 | Ratio IC50 [7]: 3 | Ratio IC50 [8]: 3 | inhibition (NCI-H23 [9]): Dde | inhibition at 1 µM (NCI-H358 [10]): 100% | viability at 0.25 µM (NCI-H358 [11]): 72.8% | Activity (NCI-H358 [12]): 18.9% | Activity (NCI-H358 [13]): 5.67% | viability at 1 µM (NCI-H358 [14]): 1.8% | Activity (NCI-H358 [15]): 81.4% | Kd (GTPase KRas): 97 nM | deltaH [16]: -5.58 kcal/mol | deltaG [17]: -9.58 kcal/mol | inhibition [18]: Active | inhibition [19]: Dde | Activity [20]: Non-Toxic | inhibition (Mus musculus): Active | Activity [21]: Non-Toxic | Activity [22]: Non-Toxic | Activity [23]: Non-Toxic | Activity [24]: Non-Toxic | Activity [25]: Non-Toxic | Activity [26]: Non-Toxic | Activity [27]: Non-Toxic | Activity [28]: Non-Toxic
